Assay results published in patent publication US20090137544A1 (priority 2006, published 2009).
Read-outs that look alike come from different tables or passages of the source.

Assays:
[1] = tested on: Hedgehog signaling activity; assay: Gli-luciferase reporter assay in rat hepatic stellate cell line; assay type: cell-based; conditions: for CONCENTRATION REGION restoring Hedgehog signaling activity / PREFERRED CONCENTRATION restoring Hedgehog signaling activity: alcohol-treated hepatic stellate cells; for efficacy order on hedgehog signaling: fish and rat liver cell line
Procedure: The Gli-luciferase reporter assay was performed in duplicated experiments of a rat hepatic stellate cell line, […]. Briefly, […] cells, were grown in DMEM medium supplemented with 10% fetal bovine serum and penicillin and streptomycin (100 U/ml). At 40-50% confluency, cells were transfected with Gli-BS-Firefly luciferase plasmid (60 ng nl^−1) and Renilla luciferase plasmid ([…], pRL-TK, Promega) (concentration ratio 10:1) by using FuGENE 6 Transfection Reagent (Roche Applied Science). […] Two hours later, the medium was added to different drugs (20α-OHC, 22(S)-OHC, 25-OHC and cholesterol). After 16 hrs, the cells were washed three times in ice-cold PBS, and then were assayed by Dual/Luciferase Reporter Assay System (Promega). Activity of the Firefly luciferase reporter was normalized to the activity of a Renilla luciferase internal control for transfection efficiency.

zebra fish embryos [2] = assay: Zebra fish embryo exposure to alcohol, cyclopamine or AY-9944: survival and phenotype; conditions: for developmental malformations of treated embryos: transient treatment during gastrulation, alcohol 2%, cyclopamine 10.0 μM, AY-9944 7.5 μM
[3] = tested on: Shh target genes Ptc, Gli1, Nkx2.2; conditions: real-time quantitative PCR
Procedure: Total RNA was extracted from embryos (n=10) with RNeasy kits (Qiagen). RT-PCR were performed using primers (information listed in following table) as previously described.^52

[4] = tested on: Hh-responsive Gli-BS luciferase reporter; assay: Gli-luciferase reporter assay in embryos; assay type: in vivo, zebra fish
Procedure: The Gli-luciferase reporter assay was performed in replicate experiments of pooled embryos (n=15). Briefly, zebra fish embryos at the 1-2 cell stage were microinjected with 0.5 nl of Gli-BS-Firefly luciferase plasmid (60 ng nl^−1) and Renilla luciferase plasmid (60 ng nl^−1, pRL-TK, Promega). Reporter activity was determined by using the Dual-Luciferase Reporter Assay System (Promega). Activity of the Firefly luciferase reporter was normalized to the activity of a Renilla luciferase internal control for transfection efficiency.
(§1) Embryos were microinjected at 1-2 cell stage with 0.2 nl of 5 μg μl^−1 ([…]) cholesterol (BioVision Inc.) with or without the two plasmids for the Gli-luciferase reporter assay. […] At 48 hpf embryos were analyzed.

Shh [5] = conditions: alcohol-exposed embryos, Western blot
From the text: Total cellular protein was isolated as previously described^51 and cell membrane proteins were isolated using the Mem-PER(r) Eukaryotic Membrane Protein Extraction Reagent Kit (Pierce Biotechnology). Proteins (4o μg) in Laemmli buffer were then separated by 12% Tris-HCl SDS-polyacrylamide gel electrophoresis and transferred to a PVDF membrane. Membranes were blocked, washed, and exposed to primary antibodies (Santa Cruz Biotechnology) against Shh (N-19, Catalog number: sc-1194; dilution: 1:2.500) and β-actin (1:1.000). Signals were detected by Anti-goat HRP antibody (1:10.000, Amersham).

[6] = alcohol exposure during gastrulation, dose-related
Procedure: Cholesterol content was then measured by the Arnplex Red Cholesterol Assay Kit (Invitrogen).

[7] = alcohol-exposed embryos
From the text: Upon esterified reaction, then the cholesterol ester can be transported from the embryonic yolk to the body. […] The fluorescent molecule, Filipin can selectively bind to free cholesterol, but not cholesterol ester; in other hand, the dye of oil red O identifies neutral lipids molecules such as cholesterol ester, but not polarized free cholesterol. First, applicant quantitatively analyzed the free cholesterol by whole mount in situ filipin staining.

zebra fish embryos [8] = assay: Cholesterol microinjection rescue of alcohol-exposed embryos; assay type: in vivo; conditions: 48 hpf
Procedure: as §1

Shh secretion = conditions: 3 hours, HSC 8B cells, Elisa
Procedure: Applicant analyzed proteins collected from the HSC 8B culture medium for Shh ligand content using two independent methods: Western blot analysis and Elisa assay. […] The cultures were incubated for an additional 3 hours, and culture medium was then harvested and concentrated for protein isolation.

Caveolin-1/Shh complex = conditions: alcohol 0.3, 0.5, 0.6, 0.8% w/v for 2 hours
From the text: First, as described in FIG. 6, cellular proteins isolated by non-ionic detergent resistant cellular extraction were fractionalized by density gradient ultracentrifugation. […] Fractions 7 through 9 from the density gradient were pooled and used in the immunoprecipitation assay.

zebra fish embryos [9] = conditions: zebrafish, in vivo
Shh [10] = tested on: Shh
Shh [11] = conditions: 0.6% alcohol (w/v, 109 mM) for 30 minutes
Shh [12] = tested on: Shh; remark: listed apart in the source
zebra fish embryos [13] = conditions: 2.0% alcohol for 6 hours from 4.3 hpf, no supplement; 72 hpf
[14] = chronic alcohol feeding versus both control groups, p<0.001

2,6,10,15,19,23-Hexamethyl-2,6,20,24,28,22-Tetracosahexaene [Squalene]
CONCENTRATION REGION restoring Hedgehog signaling activity [1]: 0.1 to 100 µM | PREFERRED CONCENTRATION restoring Hedgehog signaling activity [1]: 1 to 10 µM | efficacy order on hedgehog signaling [1]: efficacy order is 25-OHC, 22(S)-OHC, cholesterol, 20α-OHC and followed with squalene

CC(C)CCC[C@](C)(O)[C@H]1CC[C@H]2[C@@H]3CC=C4C[C@@H](O)CC[C@]4(C)[C@H]3CC[C@@]21C [20α-Hydroxycholesterol, 20-hydroxycholesterol]
CONCENTRATION REGION restoring Hedgehog signaling activity [1]: 0.1 to 100 µM | PREFERRED CONCENTRATION restoring Hedgehog signaling activity [1]: 1 to 5 µM | efficacy order on hedgehog signaling [1]: efficacy order is 25-OHC, 22(S)-OHC, cholesterol, 20α-OHC and followed with squalene

CC(C)CCC(O)[C@@H](C)[C@H]1CC[C@H]2[C@@H]3CC=C4C[C@@H](O)CC[C@]4(C)[C@H]3CC[C@]12C (stereo partly drawn) [22(S)-Hydroxycholesterol, 5-cholestene-3b,22-diol]
CONCENTRATION REGION restoring Hedgehog signaling activity [1]: 0.1 to 100 µM | PREFERRED CONCENTRATION restoring Hedgehog signaling activity [1]: 1 to 5 µM | efficacy order on hedgehog signaling [1]: efficacy order is 25-OHC, 22(S)-OHC, cholesterol, 20α-OHC and followed with squalene

C[C@H](CCCC(C)(C)O)[C@H]1CC[C@H]2[C@@H]3CC=C4C[C@@H](O)CC[C@]4(C)[C@H]3CC[C@]12C [25-hydroxycholesterol, 5-cholestene-3b,25-diol]
CONCENTRATION REGION restoring Hedgehog signaling activity [1]: 0.1 to 100 µM | PREFERRED CONCENTRATION restoring Hedgehog signaling activity [1]: 5 to 15 µM | efficacy order on hedgehog signaling [1]: efficacy order is 25-OHC, 22(S)-OHC, cholesterol, 20α-OHC and followed with squalene

Cl.Cl.Clc1ccccc1CNC[C@H]1CC[C@H](CNCc2ccccc2Cl)CC1 [AY-9944, trans-1,4 bis-(2-dichlorobenzylaminomethyl) cyclohexane dihydrochloride, reference compound]
developmental malformations of treated embryos (zebra fish embryos [2]): HPE and partial cyclopia, as well as underdevelopment of the craniofacial bones and muscles, and failure of the heart tube to loop

CCO [Alcohol, ethanol]
change in expression of Ptc or Gli1 ([3]; 0.25% alcohol): no significant change | decrease of Nkx2.2 expression ([3]; 0.25% alcohol): about 50% | Shh transcription ([3]; alcohol concentrations higher than 1.0%): decreased | Gli-BS luciferase activity in embryos ([4]; following alcohol exposure (0.25-2.0%)): decreased in a dose-related fashion | Shh in cellular membrane protein fraction (Shh [5]): progressive loss of Shh from the cellular membrane protein fraction | total cholesterol content of the embryos [6]: decrease in the total cholesterol content | cholesterol ester (oil red O staining) in embryo yolk and body [7]: dramatic decrease of cholesterol ester in the embryonic yolk, with little or no change in its concentration in the embryonic body | free cholesterol (filipin staining) in embryo body and yolk [7]: large decrease in cholesterol concentration in the embryonic body, but not in the embryonic yolk | embryos with FASD-like phenotypes (zebra fish embryos [8]; alcohol-exposed, unsupplemented embryos): 83.3% | decrease in Shh secretion (Shh secretion; 0.3% (55 mM) alcohol): 1.2 fold | decrease in Shh secretion (Shh secretion; 0.6% (109 mM) alcohol): 4.2 fold | decrease in Shh secretion (Shh secretion; 0.8% (136 mM) alcohol): 5.5 fold | amount of Caveolin-1 in the lipid raft fractions (Caveolin-1/Shh complex): did not affect the amount of Caveolin-1 | amount of Shh in Caveolin-1 containing lipid raft fractions (fractions 7-9) (Caveolin-1/Shh complex): decreased in an alcohol dose-dependent manner | Hedgehog signaling (Gli binding site derived luciferase activities) in hepatic stellate cells ([1]; alcohol 0.25, 0.5, 0.75 and 1.0% v/v versus no alcohol (A0)): decrease Hedgehog signaling activates | embryos alive at 48 hpf (zebra fish embryos [9]): 10% | embryos alive with minimal abnormalities at 48 hpf (zebra fish embryos [9]): 18% | embryos alive with normal phenotypes at 48 hpf (zebra fish embryos [9]): 72.3% | living embryos phenotypically normal at 48 hpf (zebra fish embryos [9]): 2.6% | Shh distribution pattern relative to ER marker (Shh [10]; 0.6% (w/v) alcohol for one hour): diffuse, homogeneous distribution pattern | punctate co-localized Caveolin-1/Shh particles (Shh [10]; alcohol 0.4% and 0.8% (w/v) for thirty minutes): dramatically decreased in an alcohol dose dependent manner | density gradient distribution of Shh (Shh [11]): restricted to fractions 12 through 17 | co-localization of Shh and lipid raft (Shh [12]; alcohol 0.25% v/v for 5 minutes): disrupted | Shh localization (Shh [12]; alcohol 1% for one hour): almost all of the Shh protein was accumulated inside of the liver stellate cells | embryos developed relatively normal on gross morphology (zebra fish embryos [13]): 15% | ratio of cholesterol ester to total cholesterol in plasma [14]: significantly decreased | survival rate at 48 hpf (zebra fish embryos [2]; 0.25% alcohol for 6 h, late blastula-gastrula stage (second window)): over 90% | embryos survived to 48 hpf (zebra fish embryos [2]; 0.25% alcohol, first exposure window (1 to 2 cell stages to 3 hpf)): < 40% | embryos that failed to survive to 48 hpf (zebra fish embryos [2]; 0.25% alcohol, second exposure window): < 10% | embryos survived through 48 hpf with abnormal morphology (zebra fish embryos [2]; 2% alcohol, second exposure window): 84% | embryos for which exposure was lethal (zebra fish embryos [2]; 2% alcohol, second exposure window, 48 hpf): 13%

CC(C)CCC[C@@H](C)[C@H]1CC[C@H]2[C@@H]3CC=C4C[C@@H](O)CC[C@]4(C)[C@H]3CC[C@]12C [Cholesterol, 10,13-dimethyl-17-(6-methylheptan-2-yl)-2,3,4,7,8,9,11,12,14,15,16,17-dodecahydro-1H-cyclopenta[a]phenanthren-3-ol]
Gli-BS reporter activity in cholesterol-supplemented, alcohol-exposed embryos ([4]; cholesterol 10 pg microinjected at 1-2 cell stage, various alcohol concentrations during gastrulation): preserved at all doses of alcohol exposure | embryos that appeared grossly normal (zebra fish embryos [8]; cholesterol-supplemented (10 pg), alcohol-exposed embryos): 94.8% | CONCENTRATION REGION restoring Hedgehog signaling activity [1]: 1 to 50 µM | PREFERRED CONCENTRATION restoring Hedgehog signaling activity [1]: 1 to 20 µM | efficacy order on hedgehog signaling [1]: efficacy order is 25-OHC, 22(S)-OHC, cholesterol, 20α-OHC and followed with squalene

CC1=C2C[C@H]3[C@@H](CC=C4C[C@@H](O)CC[C@@]43C)[C@@H]2CC[C@]12O[C@@H]1C[C@H](C)CN[C@H]1[C@H]2C [cyclopamine, 11-deoxojervine, reference compound]
developmental malformations of treated embryos (zebra fish embryos [2]): HPE and partial cyclopia, as well as underdevelopment of the craniofacial bones and muscles, and failure of the heart tube to loop
